Test results as given in ChEMBL document CHEMBL5230144, “Synthesis and Biological Evaluation of Celastrol Derivatives with Improved Cytotoxic Selectivity and Antitumor Activities” (J Nat Prod, 2021).

What was measured:
[1] = Cytotoxicity against human mesenchymal bone marrow stem cells measured after 48 hrs by MTT assay; type: toxicity, cell-based
MDA-MB-231 = experiment: cells; conditions: Homo sapiens, MDA-MB-231, 48 h
Description: Antiproliferative activity against human MDA-MB-231 cells assessed as inhibition of cell proliferation measured after 48 hrs by MTT assay

| SMILES | IC50 (MDA-MB-231) | IC50 at 48 h [1] |
| --- | --- | --- |
| C#CCOC(=O)[C@]1(C)CC[C@]2(C)CC[C@]3(C)C4=CC=C5C(=CC(=O)C(OC(=O)N(CCCC)CCCC)=C5C)[C@]4(C)CC[C@@]3(C)[C@@H]2C1 | 100 nM | 1200 nM |
| C#CCOC(=O)[C@]1(C)CC[C@]2(C)CC[C@]3(C)C4=CC=C5C(=CC(=O)C(OC(=O)CCC)=C5C)[C@]4(C)CC[C@@]3(C)[C@@H]2C1 | 400 nM | 2600 nM |
| C#CCOC(=O)[C@]1(C)CC[C@]2(C)CC[C@]3(C)C4=CC=C5C(=CC(=O)C(OC(=O)/C=C/C)=C5C)[C@]4(C)CC[C@@]3(C)[C@@H]2C1 | 500 nM | 3000 nM |
| C#CCOC(=O)[C@]1(C)CC[C@]2(C)CC[C@]3(C)C4=CC=C5C(=CC(=O)C(OC(=O)N(CC)CC)=C5C)[C@]4(C)CC[C@@]3(C)[C@@H]2C1 | 300 nM | 3200 nM |
| C#CCOC(=O)[C@]1(C)CC[C@]2(C)CC[C@]3(C)C4=CC=C5C(=CC(=O)C(OC(=O)N6CCN(c7ccc(Cl)cc7)CC6)=C5C)[C@]4(C)CC[C@@]3(C)[C@@H]2C1 | 200 nM | 1600 nM |
| C#CCOC(=O)[C@]1(C)CC[C@]2(C)CC[C@]3(C)C4=CC=C5C(=CC(=O)C(OC(=O)N(C)CCC)=C5C)[C@]4(C)CC[C@@]3(C)[C@@H]2C1 | 300 nM | 900 nM |
| C#CCOC(=O)[C@]1(C)CC[C@]2(C)CC[C@]3(C)C4=CC=C5C(=CC(=O)C(OC(=O)N6CCN(c7cccc(OC)c7)CC6)=C5C)[C@]4(C)CC[C@@]3(C)[C@@H]2C1 | 300 nM | 1800 nM |
| C#CCOC(=O)[C@]1(C)CC[C@]2(C)CC[C@]3(C)C4=CC=C5C(=CC(=O)C(OC(=O)N6CCCCC6)=C5C)[C@]4(C)CC[C@@]3(C)[C@@H]2C1 | 100 nM | 2400 nM |
| C#CCOC(=O)[C@]1(C)CC[C@]2(C)CC[C@]3(C)C4=CC=C5C(=CC(=O)C(OC(=O)/C=C/c6ccccc6)=C5C)[C@]4(C)CC[C@@]3(C)[C@@H]2C1 | 500 nM | 2800 nM |
| C#CCOC(=O)[C@]1(C)CC[C@]2(C)CC[C@]3(C)C4=CC=C5C(=CC(=O)C(OC(=O)N6c7ccccc7CCc7ccccc76)=C5C)[C@]4(C)CC[C@@]3(C)[C@@H]2C1 | 300 nM | 1000 nM |
| C#CCOC(=O)[C@]1(C)CC[C@]2(C)CC[C@]3(C)C4=CC=C5C(=CC(=O)C(OC(=O)N(C)CC)=C5C)[C@]4(C)CC[C@@]3(C)[C@@H]2C1 | 300 nM | 3000 nM |
| C#CCOC(=O)[C@]1(C)CC[C@]2(C)CC[C@]3(C)C4=CC=C5C(=CC(=O)C(OC(=O)N6CCN(c7ccccc7OC)CC6)=C5C)[C@]4(C)CC[C@@]3(C)[C@@H]2C1 | 300 nM | 1800 nM |
| C#CCOC(=O)[C@]1(C)CC[C@]2(C)CC[C@]3(C)C4=CC=C5C(=CC(=O)C(OC(=O)N6CCN(C)CC6)=C5C)[C@]4(C)CC[C@@]3(C)[C@@H]2C1 | 300 nM | 2000 nM |
| C#CCOC(=O)[C@]1(C)CC[C@]2(C)CC[C@]3(C)C4=CC=C5C(=CC(=O)C(OC(=O)N6CCCC6)=C5C)[C@]4(C)CC[C@@]3(C)[C@@H]2C1 | 200 nM | 2700 nM |
| C#CCOC(=O)[C@]1(C)CC[C@]2(C)CC[C@]3(C)C4=CC=C5C(=CC(=O)C(OC(=O)N6c7ccccc7Sc7ccccc76)=C5C)[C@]4(C)CC[C@@]3(C)[C@@H]2C1 | 200 nM | 2900 nM |
| C#CCOC(=O)[C@]1(C)CC[C@]2(C)CC[C@]3(C)C4=CC=C5C(=CC(=O)C(OC(=O)N6CCN(c7ccccc7Cl)CC6)=C5C)[C@]4(C)CC[C@@]3(C)[C@@H]2C1 | 200 nM | 1900 nM |
| C#CCOC(=O)[C@]1(C)CC[C@]2(C)CC[C@]3(C)C4=CC=C5C(=CC(=O)C(OC(=O)N6c7ccccc7C=Cc7ccccc76)=C5C)[C@]4(C)CC[C@@]3(C)[C@@H]2C1 | 200 nM | 2200 nM |
| C#CCOC(=O)[C@]1(C)CC[C@]2(C)CC[C@]3(C)C4=CC=C5C(=CC(=O)C(OC(=O)N6CCN(c7ccccc7)CC6)=C5C)[C@]4(C)CC[C@@]3(C)[C@@H]2C1 | 200 nM | 1800 nM |
| C#CCOC(=O)[C@]1(C)CC[C@]2(C)CC[C@]3(C)C4=CC=C5C(=CC(=O)C(OC(=O)N(C)CCCC)=C5C)[C@]4(C)CC[C@@]3(C)[C@@H]2C1 | 300 nM | 1000 nM |
| C#CCOC(=O)[C@]1(C)CC[C@]2(C)CC[C@]3(C)C4=CC=C5C(=CC(=O)C(OC(=O)N(CCC)CCC)=C5C)[C@]4(C)CC[C@@]3(C)[C@@H]2C1 | 300 nM | 900 nM |
| C#CCOC(=O)[C@]1(C)CC[C@]2(C)CC[C@]3(C)C4=CC=C5C(=CC(=O)C(OC(=O)N(c6ccccc6)c6ccccc6)=C5C)[C@]4(C)CC[C@@]3(C)[C@@H]2C1 | 200 nM | 3100 nM |

Continued, in another order:

| IC50 (MDA-MB-231) | SMILES | IC50 at 48 h [1] |
| --- | --- | --- |
| 400 nM | C#CCOC(=O)[C@]1(C)CC[C@]2(C)CC[C@]3(C)C4=CC=C5C(=CC(=O)C(OC(=O)/C=C/c6cccc(C)c6)=C5C)[C@]4(C)CC[C@@]3(C)[C@@H]2C1 | 2900 nM |
| 300 nM | C#CCOC(=O)[C@]1(C)CC[C@]2(C)CC[C@]3(C)C4=CC=C5C(=CC(=O)C(OC(=O)c6ccc(Br)cc6)=C5C)[C@]4(C)CC[C@@]3(C)[C@@H]2C1 | 2200 nM |
| 400 nM | C#CCOC(=O)[C@]1(C)CC[C@]2(C)CC[C@]3(C)C4=CC=C5C(=CC(=O)C(OC(=O)c6ccc(F)cc6)=C5C)[C@]4(C)CC[C@@]3(C)[C@@H]2C1 | 2000 nM |
| 200 nM | C#CCOC(=O)[C@]1(C)CC[C@]2(C)CC[C@]3(C)C4=CC=C5C(=CC(=O)C(OC(=O)N(C)C)=C5C)[C@]4(C)CC[C@@]3(C)[C@@H]2C1 | 2000 nM |
| 300 nM | C#CCOC(=O)[C@]1(C)CC[C@]2(C)CC[C@]3(C)C4=CC=C5C(=CC(=O)C(OC(=O)/C=C/c6cccc(Cl)c6)=C5C)[C@]4(C)CC[C@@]3(C)[C@@H]2C1 | 2000 nM |
| 700 nM | C#CCOC(=O)[C@]1(C)CC[C@]2(C)CC[C@]3(C)C4=CC=C5C(=CC(=O)C(OC(=O)C=C)=C5C)[C@]4(C)CC[C@@]3(C)[C@@H]2C1 | 3700 nM |
| 400 nM | C#CCOC(=O)[C@]1(C)CC[C@]2(C)CC[C@]3(C)C4=CC=C5C(=CC(=O)C(OC(=O)C(=C)C)=C5C)[C@]4(C)CC[C@@]3(C)[C@@H]2C1 | 2400 nM |
| 300 nM | C#CCOC(=O)[C@]1(C)CC[C@]2(C)CC[C@]3(C)C4=CC=C5C(=CC(=O)C(OC(=O)/C=C/c6ccccc6F)=C5C)[C@]4(C)CC[C@@]3(C)[C@@H]2C1 | 1400 nM |
| 500 nM | C#CCOC(=O)[C@]1(C)CC[C@]2(C)CC[C@]3(C)C4=CC=C5C(=CC(=O)C(OC(C)=O)=C5C)[C@]4(C)CC[C@@]3(C)[C@@H]2C1 | 2400 nM |
